From article PMC6539495, “Anti-Cancer Activity of Novel Dihydrotestosterone-Derived Ring A-Condensed Pyrazoles on Androgen Non-Responsive Prostate Cancer Cell Lines” (International Journal of Molecular Sciences, 2019) come the findings set out here.

The structures appear in SMILES notation.

The subject of test [1] is MRC-5 cells. Nature of the test: MTT cell viability assay on non-cancerous MRC-5 fibroblasts. The following applies: 72 hours, MTT. The class given is cell-based. The protocol:
(§1) HeLa, MCF-7 and MDA-MB-231 cells were obtained from Sigma-Aldrich and maintained as reported previously. MRC-5, PC-3, DU 145 cells were purchased from American Type Culture Collection (ATCC, Manassas, VA, USA). PC-3 and DU 145 were maintained in RPMI medium (Sigma-Aldrich) whereas MRC-5 cells were maintained in DMEM medium (Sigma-Aldrich). All media were complemented with 10% Fetal bovine serum (FBS, Sigma-Aldrich) 2 mM L-glutamine, 0.01% streptomycin and 0.005% ampicillin (Sigma-Aldrich). Cells were cultured under standard conditions in a 37 °C incubator containing 5% CO2 in 95% humidity.
(§2) Each test compound was dissolved in cell culture grade DMSO (Molar Chemicals, Halásztelek, Hungary) in a final concentration of […]. Antiproliferative action of the synthesized steroids was investigated by MTT assay. An amount of 5000 cells/well were seeded into 96 well plates. Twenty-four hours post seeding, all cell lines were treated with each compound in 10 and 30 μM concentrations for 72 hours. […] After 72 hours, cells were washed with PBS and incubated with culture medium containing 0.5 mg/mL MTT (3-(4, 5-dimethylthiazolyl-2)-2,5-diphenyltetrazolium bromide) reagent (SERVA, GmbH, Heidelberg, Germany) for an hour at 37 °C. Formazan crystals were solubilized in DMSO and extinction was measured at 570 nm using a Synergy HTX plate reader (BioTech-Hungary, Budapest, Hungary). MTT assays were performed at least three times using four independent biological replicates. Data were normalized to solvent controls and the graphical representation of the obtained data as well as the calculation of IC50 values were carried out by GraphPad Prism 7 software (GraphPad Software; San Diego, CA, USA).
Background: Tetrazolium assays rely on reduction of a dye to a coloured formazan, in cell work by metabolically active cells.

For test [2], the system named is DU 145 cells. Kind of test: MTT cell viability assay on DU 145 prostate cancer cells. The class given is cell-based, human. Conditions: 72 hours. The protocol: as §1, §2
For test [3], the system named is PC-3 cells. Nature of the test: MTT cell viability assay on PC-3 prostate cancer cells. The class given is cell-based, human. Conditions: for Mean values (%) of primary growth inhibitory screen (viability in %), PC-3: 72 hours, MTT; for antiproliferative potency against PC-3 prostate cancer cells compared to MRC-5 non-cancerous fibroblasts: primary screen. The protocol: as §1, §2

Test [4] concerns HeLa cells. Nature of the test: MTT cell viability assay on HeLa cervical cancer cells. The class given is cell-based, human. The following applies: 72 hours. The protocol: as §1, §2
Test [5] concerns MCF-7 cells. Nature of the test: MTT cell viability assay on MCF-7 breast cancer cells. The class given is cell-based, human. The following applies: 72 hours. The protocol: as §1, §2
The subject of test [6] is MDA-MB-231 cells. Nature of the test: MTT cell viability assay on MDA-MB-231 breast cancer cells. The class given is cell-based, human. Conditions: 72 hours. Here is the method:
as §1, §2

As for `Cc1c2c(nn1-c1ccc(C#N)cc1)C[C@@H]1CC[C@@H]3[C@H](CC[C@]4(C)[C@@H](O)CC[C@@H]34)[C@@]1(C)C2` [4i, 17β-Hydroxy-1′-(4″-cyanophenyl)-5′-methylpyrazolo[3′,4′:3,2]-5α-androstane], the “Mean values (%) of primary growth inhibitory screen (viability in %), MRC-5” value is recorded as 100.3% in test [1] (10 µM) and 97.4% in test [1] (30 µM). The “Mean values (%) of primary growth inhibitory screen (viability in %), DU 145” value was 104.9% in test [2] (10 µM) and 105.7% in test [2] (30 µM). In addition, the “Mean values (%) of primary growth inhibitory screen (viability in %), PC-3” value is given as 56.6% in test [3] (10 µM) and 53.3% in test [3] (30 µM). Besides, the “antiproliferative potency against PC-3 prostate cancer cells compared to MRC-5 non-cancerous fibroblasts” value in test [3] (10 µM) and in test [3] (30 µM) was “significantly higher” each time. Besides, the “Mean values (%) of primary growth inhibitory screen (viability in %), HeLa” value in test [4] (10 µM) turned out to be 62.9%; in test [4] (30 µM), 72.5%. The “Mean values (%) of primary growth inhibitory screen (viability in %), MCF-7” value in test [5] (10 µM) was found to be 53.6%; in test [5] (30 µM), 50.4%. Moreover, the “Mean values (%) of primary growth inhibitory screen (viability in %), MDA-MB-231” value in test [6] (10 µM) is recorded as 93.0%; in test [6] (30 µM), 89.1%.

With `Cc1ccccc1-n1nc2c(c1C)C[C@@]1(C)[C@@H](CC[C@@H]3[C@@H]1CC[C@]1(C)C(=O)CC[C@@H]31)C2` [5b, 1′-(2″-Tolyl)-5′-methylpyrazolo[3′,4′:3,2]-5α-androst-17-one], the “Mean values (%) of primary growth inhibitory screen (viability in %), MRC-5” value in test [1] (10 µM) is recorded as 93.2%; in test [1] (30 µM) it was 66.2%. Also, the “Mean values (%) of primary growth inhibitory screen (viability in %), DU 145” value in test [2] (10 µM) was determined as 82.3%; in test [2] (30 µM), 58.4%. In addition, the “Mean values (%) of primary growth inhibitory screen (viability in %), PC-3” value was 62.3% in test [3] (10 µM) and 43.2% in test [3] (30 µM). Moreover, the “antiproliferative potency against PC-3 prostate cancer cells compared to MRC-5 non-cancerous fibroblasts” value in test [3] (30 µM) is “significantly higher”. Moreover, the figures for the “Mean values (%) of primary growth inhibitory screen (viability in %), HeLa” value in test [4] (10 µM) and in test [4] (30 µM) were 65.5% and 66.8%, respectively. For the same compound, the “Mean values (%) of primary growth inhibitory screen (viability in %), MCF-7” value in test [5] (10 µM) was 59.3%; in test [5] (30 µM), 63.6%. For the same compound, the “Mean values (%) of primary growth inhibitory screen (viability in %), MDA-MB-231” value in test [6] (10 µM) is reported as 83.0%; in test [6] (30 µM) it was 76.9%.

`Cc1ccc(-n2nc3c(c2C)CC2(C)C(CCC4C5CCC(=O)C5(C)CCC42)C3)cc1` (stereo not drawn) [5c, 1′-(4″-Tolyl)-5′-methylpyrazolo[3′,4′:3,2]-5α-androst-17-one]: the “Mean values (%) of primary growth inhibitory screen (viability in %), MRC-5” value in test [1] (10 µM) worked out at 89.1%; in test [1] (30 µM) it was 62.5%. Further, the “Mean values (%) of primary growth inhibitory screen (viability in %), DU 145” value in test [2] (10 µM) stood at 86.3%; in test [2] (30 µM) it was 51.1%. For the same compound, the “Mean values (%) of primary growth inhibitory screen (viability in %), PC-3” value in test [3] (10 µM) is on record as 68.1%; in test [3] (30 µM), 43.6%. Moreover, the “Mean values (%) of primary growth inhibitory screen (viability in %), HeLa” value in test [4] (10 µM) was 46.3%; in test [4] (30 µM) it was 38.5%. Further, the entries for the “Mean values (%) of primary growth inhibitory screen (viability in %), MCF-7” value in test [5] (10 µM) and in test [5] (30 µM) were 63.6% and 48.7%, respectively. For the same compound, the “Mean values (%) of primary growth inhibitory screen (viability in %), MDA-MB-231” value in test [6] (10 µM) is given as 78.7%; in test [6] (30 µM), 66.2%.

`Cc1ccc(-n2nc3c(c2C)C[C@@]2(C)[C@@H](CC[C@@H]4[C@@H]2CC[C@]2(C)C(=O)CC[C@@H]42)C3)c(C)c1` [5d, 1′-(2″,4″-Dimethylphenyl)-5′-methylpyrazolo[3′,4′:3,2]-5α-androst-17-one]: the “Mean values (%) of primary growth inhibitory screen (viability in %), MRC-5” value in test [1] (10 µM) came to 80.1%; in test [1] (30 µM), 21.3%. For the same compound, the “Mean values (%) of primary growth inhibitory screen (viability in %), DU 145” value in test [2] (10 µM) is on record as 65.6%; in test [2] (30 µM), 10.0%. In addition, the “Mean values (%) of primary growth inhibitory screen (viability in %), PC-3” value in test [3] (10 µM) amounted to 52.1%; in test [3] (30 µM), 14.6%. Moreover, the “Mean values (%) of primary growth inhibitory screen (viability in %), HeLa” value in test [4] (10 µM) is on record as 39.5%; in test [4] (30 µM), 30.7%. For the same compound, the “Mean values (%) of primary growth inhibitory screen (viability in %), MCF-7” value is recorded as 56.3% in test [5] (10 µM) and 13.3% in test [5] (30 µM). Besides, the results for the “Mean values (%) of primary growth inhibitory screen (viability in %), MDA-MB-231” value in test [6] (10 µM) and in test [6] (30 µM) were 77.2% and 54.1%, respectively.

Take `COc1ccc(-n2nc3c(c2C)C[C@@]2(C)[C@@H](CC[C@@H]4[C@@H]2CC[C@]2(C)C(=O)CC[C@@H]42)C3)cc1` [5e, 1′-(4″-Methoxyphenyl)-5′-methylpyrazolo[3′,4′:3,2]-5α-androst-17-one]: the “Mean values (%) of primary growth inhibitory screen (viability in %), MRC-5” value in test [1] (10 µM) and in test [1] (30 µM) was 79.3% throughout. Moreover, the “Mean values (%) of primary growth inhibitory screen (viability in %), DU 145” value came out at 62.1% in test [2] (10 µM) and 48.1% in test [2] (30 µM). In addition, the “Mean values (%) of primary growth inhibitory screen (viability in %), PC-3” value worked out at 45.5% in test [3] (10 µM) and 29.7% in test [3] (30 µM). Further, the “antiproliferative potency against PC-3 prostate cancer cells compared to MRC-5 non-cancerous fibroblasts” value in test [3] (30 µM) is on record as “significantly higher”. For the same compound, the “Mean values (%) of primary growth inhibitory screen (viability in %), HeLa” value in test [4] (10 µM) came out at 38.4%; in test [4] (30 µM), 41.8%. Besides, the entries for the “Mean values (%) of primary growth inhibitory screen (viability in %), MCF-7” value in test [5] (10 µM) and in test [5] (30 µM) were 53.5% and 36.3%, respectively. Besides, the “Mean values (%) of primary growth inhibitory screen (viability in %), MDA-MB-231” value in test [6] (10 µM) is on record as 72.0%; in test [6] (30 µM), 61.5%.

`Cc1c2c(nn1-c1ccc(F)cc1)C[C@@H]1CC[C@@H]3[C@H](CC[C@]4(C)C(=O)CC[C@@H]34)[C@@]1(C)C2` [5f, 1′-(4″-Fluorophenyl)-5′-methylpyrazolo[3′,4′:3,2]-5α-androst-17-one]: the “Mean values (%) of primary growth inhibitory screen (viability in %), MRC-5” value came to 83.9% in test [1] (10 µM) and 66.1% in test [1] (30 µM). Moreover, the “Mean values (%) of primary growth inhibitory screen (viability in %), DU 145” value in test [2] (10 µM) is given as 74.9%; in test [2] (30 µM), 50.7%. The “Mean values (%) of primary growth inhibitory screen (viability in %), PC-3” value in test [3] (10 µM) is recorded as 54.3%; in test [3] (30 µM), 17.6%. Besides, the “antiproliferative potency against PC-3 prostate cancer cells compared to MRC-5 non-cancerous fibroblasts” value in test [3] (10 µM) and in test [3] (30 µM) was “significantly higher” each time. The “Mean values (%) of primary growth inhibitory screen (viability in %), HeLa” value in test [4] (10 µM) was found to be 40.5%; in test [4] (30 µM) it was 50.5%. Moreover, the “Mean values (%) of primary growth inhibitory screen (viability in %), MCF-7” value in test [5] (10 µM) was 72.6%; in test [5] (30 µM), 30.6%. The “Mean values (%) of primary growth inhibitory screen (viability in %), MDA-MB-231” value in test [6] (10 µM) came out at 82.3%; in test [6] (30 µM), 66.0%.

Consider `Cc1c2c(nn1-c1ccc(Cl)cc1)C[C@@H]1CC[C@@H]3[C@H](CC[C@]4(C)C(=O)CC[C@@H]34)[C@@]1(C)C2` [5g, 1′-(4″-Chlorophenyl)-5′-methylpyrazolo[3′,4′:3,2]-5α-androst-17-one], for which the results for the “Mean values (%) of primary growth inhibitory screen (viability in %), MRC-5” value in test [1] (10 µM) and in test [1] (30 µM) were 94.4% and 18.1%, respectively. Further, the entries for the “Mean values (%) of primary growth inhibitory screen (viability in %), DU 145” value in test [2] (10 µM) and in test [2] (30 µM) were 73.7% and 23.2%, respectively. For the same compound, the “Mean values (%) of primary growth inhibitory screen (viability in %), PC-3” value in test [3] (10 µM) is on record as 54.7%; in test [3] (30 µM), 11.8%. Moreover, in test [3] (10 µM), the “antiproliferative potency against PC-3 prostate cancer cells compared to MRC-5 non-cancerous fibroblasts” value is recorded as “significantly higher”. Also, the results for the “Mean values (%) of primary growth inhibitory screen (viability in %), HeLa” value in test [4] (10 µM) and in test [4] (30 µM) were 38.7% and 39.0%, respectively. The “Mean values (%) of primary growth inhibitory screen (viability in %), MCF-7” value is listed as 56.3% in test [5] (10 µM) and 28.0% in test [5] (30 µM). The “Mean values (%) of primary growth inhibitory screen (viability in %), MDA-MB-231” value in test [6] (10 µM) was found to be 65.7%; in test [6] (30 µM), 65.1%.
